Data reported in US12428406B2 (PMV Pharmaceuticals, Inc., priority 2019, dated 2025).

The compounds below were run against T1, p53 Y220C (Homo sapiens, UniProt P04637, Y220C) (assay: In vitro DNA binding activity assay (HTRF / TR-FRET): stabilization of p53 Y220C and increase of its DNA binding activity). Conditions: recombinant His-tagged p53 Y220C DNA binding domain (aa 94-312), biotin-labeled consensus DNA, incubated at 27° C. or 29° C. for 60 min.
T1 construct: The recombinant protein was a truncation mutant containing only amino acids 94-312 of p53; made in house; host or cells: E. coli
T1 sequence (P04637 94-312, change not shown): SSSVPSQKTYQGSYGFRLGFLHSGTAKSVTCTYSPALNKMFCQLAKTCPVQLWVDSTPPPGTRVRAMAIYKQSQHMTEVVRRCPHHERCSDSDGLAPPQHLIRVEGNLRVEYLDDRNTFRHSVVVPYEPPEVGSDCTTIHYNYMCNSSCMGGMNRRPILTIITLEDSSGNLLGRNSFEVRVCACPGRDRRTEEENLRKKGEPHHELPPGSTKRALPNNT
Type: biochemical
Outline: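 Compounds from 4.5 mM DMSO stocks, 3-fold serial dilutions; room-temperature incubations of 15 and 20 min. SC150 = concentration raising DNA binding by 50% over no-compound control.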

Row | SMILES | SC150 (concentration of the compound required to increase the DNA binding activity by 50%)
1 | CCC(=O)OC(COC)CN1CCC(Nc2cccc3c2cc(C#CCNc2ccc(C(=O)NC)cc2OC)n3CC(F)(F)F)CC1 (centres unmarked) [Compound 657A, 1-methoxy-3-(4-{[2-(3-{[2-methoxy-4-(methylcarbamoyl)phenyl]amino}prop-1-yn-1-yl)-1-(2,2,2-trifluoroethyl)-1lH-indol-4-yl]amino}piperidin-1-yl)propan-2-yl propanoate] | + (+ = 0 μM ≤ SC150 < 0.05 μM)
2 | COCCN(C)[C@H]1CC[C@H](Nc2cccc3c2cc(C#CCNc2ccc(S(N)(=O)=O)cc2OCF)n3CC(F)(F)F)CC1 [Compound 168A, 3-(fluoromethoxy)-4-{[3-(4-{[(1R,4R)-4-[(2-methoxyethyl)(methyl)amino]cyclohexyl]amino}-1-(2,2,2-trifluoro-ethyl)-1H-indol-2-yl)prop-2-yn-1-yl]amino}benzene-1-sulfonamide] | + (+ = 0 μM ≤ SC150 < 0.05 μM)
3 | COc1cc(S(N)(=O)=O)ccc1NCC#Cc1cc2c(N[C@H]3CC[C@@H](N4CC5CC(C4)O5)CC3)cccc2n1CC(F)(F)F [Compound 401A, 3-methoxy-4-{[3-(4-{[(1S,4S)-4-{6-oxa-3-azabicyclo[3.1.1]heptan-3-yl}cyclohexyl]amino}-1-(2,2,2-trifluoroethyl)-1H-indol-2-yl)prop-2-yn-1-yl]amino}benzene-1-sulfonamide] | ++ (++ = 0.05 μM ≤ SC150 < 0.1 μM)
4 | COc1cc(C(=O)N[C@H](C)CO)ccc1NCC#Cc1cc2c(N[C@@H]3CCN(C)C[C@@H]3F)cccc2n1CC(F)(F)F [Compound 950A, 4-{[3-(4-{[(3S,4R)-3-fluoro-1-methylpiperidin-4-yl]amino}-1-(2,2,2-trifluoroethyl)-1H-indol-2-yl)prop-2-yn-1-yl]amino}-N-[(2R)-1-hydroxypropan-2-yl]-3-methoxybenzamide] | + (+ = 0 μM ≤ SC150 < 0.05 μM)
5 | CS(=O)(=O)c1ccc(NCC#Cc2cc3c(N[C@H]4CC[C@H](N5CCOCC5)CC4)cccc3n2CC(F)(F)F)c(OCC#N)c1 [Compound 185A, 2-(5-methanesulfonyl-2-{[3-(4-{[(1R,4R)-4-(morpholin-4-yl)cyclohexyl]amino}-1-(2,2,2-trifluoroethyl)-1H-indol-2-yl)prop-2-yn-1-yl]amino}phenoxy)acetonitrile] | + (+ = 0 μM ≤ SC150 < 0.05 μM)
6 | CNC(=O)c1ccc(NCC#Cc2cc3c(N[C@@H]4CCNC[C@@H]4F)cccc3n2CC(F)(F)F)c(OC)c1 [Compound 857A] | + (+ = 0 μM ≤ SC150 < 0.05 μM)
7 | COCC(=O)N1CC[C@@H](Nc2cccc3c2cc(C#CCNc2ccc(S(C)(=O)=O)cc2OC)n3CC(F)(F)F)[C@@H](F)C1 [Compound 866A, 1-[(3S,4R)-3-fluoro-4-[(2-{3-[(4-methanesulfonyl-2-methoxyphenyl)amino]prop-1-yn-1-yl}-1-(2,2,2-trifluoroethyl)-1H-indol-4-yl)amino]piperidin-1-yl]-2-methoxyethan-1-one] | + (+ = 0 μM ≤ SC150 < 0.05 μM)
8 | CN1CC[C@@H](Nc2cccc3c2cc(C#CCNc2ccc(S(C)(=O)=O)cc2O)n3CC(F)(F)F)[C@@H](F)C1 [Compound 834A, 2-{[3-(4-{[(3S,4R)-3-fluoro-1-methylpiperidin-4-yl]amino}-1-(2,2,2-trifluoroethyl)-1H-indol-2-yl)prop-2-yn-1-yl]amino}-5-methanesulfonylphenol] | + (+ = 0 μM ≤ SC150 < 0.05 μM)
9 | CC(C)C(=O)N(CC#Cc1cc2c(N[C@H]3CC[C@H](N4CC5(COC5)C4)CC3)cccc2n1CC(F)(F)F)c1ccc(S(C)(=O)=O)cc1O [Compound 218A, N-(2-hydroxy-4-methanesulfonylphenyl)-2-methyl-N-[3-(4-{[(1R,4R)-4-{2-oxa-6-azaspiro[3.3]heptan-6-yl}cyclohexyl]amino}-1-(2,2,2-trifluoroethyl)-1H-indol-2-yl)prop-2-yn-1-yl]propanamide] | ++++ (++++ = 0.2 μM ≤ SC150 < 1 μM)
10 | CNC(=O)c1cc(OC)c(NCC#Cc2cc3c(N[C@H]4CC[C@H](N5CC6(COC6)C5)CC4)cccc3n2CC(F)(F)F)cc1F [Compound 275A, 2-fluoro-5-methoxy-N-methyl-4-{[3-(4-{[(1R,4R)-4-{2-oxa-6-azaspiro[3.3]heptan-6-yl}cyclohexyl]amino}-1-(2,2,2-trifluoroethyl)-1H-indol-2-yl)prop-2-yn-1-yl]amino}benzamide] | + (+ = 0 μM ≤ SC150 < 0.05 μM)

Results, then the compound that gave them:

Row | SC150 (concentration of the compound required to increase the DNA binding activity by 50%) | SMILES
11 | +++ (+++ = 0.1 μM ≤ SC150 < 0.2 μM) | CN1CCC(Nc2cccc3c2cc(C#CCOc2ccc(S(C)(=O)=O)cc2N(C)C)n3CC(F)(F)F)CC1 [Compound 488A, 2-{3-[2-(dimethylamino)-4-methanesulfonylphenoxy]prop-1-yn-1-yl}-N-(1-methylpiperidin-4-yl)-1-(2,2,2-trifluoroethyl)-1H-indol-4-amine]
12 | + (+ = 0 μM ≤ SC150 < 0.05 μM) | COc1cc(C(=O)O)ccc1NCC#Cc1cc2c(N[C@@H]3CCN(C)C[C@@H]3F)cccc2n1CC(F)(F)F [Compound 781A, 4-{[3-(4-{[(3S,4R)-3-fluoro-1-methylpiperidin-4-yl]amino}-1-(2,2,2-trifluoroethyl)-1H-indol-2-yl)prop-2-yn-1-yl]amino}-3-methoxybenzoic acid]
13 | + (+ = 0 μM ≤ SC150 < 0.05 μM) | COc1cc(Cl)ccc1NCC#Cc1cc2c(N[C@H]3CC[C@H](N(C)C)CC3)cccc2n1CC(F)(F)F [Compound 130A, (1R,4R)—N^4-(2-{3-[(4-chloro-2-methoxyphenyl)amino]prop-1-yn-1-yl}-1-(2,2,2-trifluoroethyl)-1H-indol-4-yl)-N^1,N^1-dimethylcyclohexane-1,4-diamine]
14 | + (+ = 0 μM ≤ SC150 < 0.05 μM) | COc1cc(C(=O)N2CCOCC2)ccc1NCC#Cc1cc2c(NC3CCN(C)CC3)cccc2n1CC(F)(F)F [Compound 491A]
15 | ++ (++ = 0.05 μM ≤ SC150 < 0.1 μM) | COc1cc(C(F)(F)F)ccc1NCC#Cc1cc2c(NC3CCN(C)CC3)cccc2n1CC(F)(F)F [Compound 515A, 2-(3-{[2-methoxy-4-(trifluoromethyl)phenyl]amino}prop-1-yn-1-yl)-N-(1-methylpiperidin-4-yl)-1-(2,2,2-trifluoroethyl)-1H-indol-4-amine]
16 | + (+ = 0 μM ≤ SC150 < 0.05 μM) | COc1cc(S(C)(=O)=O)c(F)cc1NCC#Cc1cc2c(NC3CCN(C)CC3)cccc2n1CC(F)(F)F [Compound 522A, 2-{3-[(5-fluoro-4-methanesulfonyl-2-methoxyphenyl)amino]prop-1-yn-1-yl}-N-(1-methylpiperidin-4-yl)-1-(2,2,2-trifluoroethyl)-1H-indol-4-amine]
17 | + (+ = 0 μM ≤ SC150 < 0.05 μM) | COc1cc(S(C)(=O)=O)ccc1NCC#Cc1cc2c(NC3CCN(C(=O)C(C)C)CC3)cccc2n1CC(F)(F)F [Compound 752A]
